Literature values as cited in US20070065449A1 (priority 2005, published 2007).
Structures can show the parent of a compound that is named as a salt. Where two headings read alike, the source gives them in different places.

Columns and labels:
[1] = test system: pretreated adult soft tissue sarcoma
[2] = test system: advanced soft tissue sarcomas
[3] = test system: soft tissue sarcomas
[4] = not given; remark: listed apart in the source
[5] = test system: soft tissue sarcomas; conditions: previously untreated patients; 95% CI 0.1, 29
[6] = test system: tubulin; conditions: read-out: concentration required to provide 50% inhibition of microtubule disassembly (IC50)
[7] = test system: soft tissue sarcoma; conditions: 29 evaluable patients, previously treated with chemotherapy
[8] = in vivo
[9] = test system: soft tissue sarcoma; conditions: 27 evaluable patients, previously treated with chemotherapy
[10] = test system: leiomyosarcoma of the uterus; conditions: 48 evaluable patients
[11] = test system: advanced soft tissue sarcomas; conditions: previously untreated advanced soft tissue sarcomas
[12] = test system: angiosarcoma of the scalp or face; conditions: four partial and four clinical complete responses
[13] = not given; remark: listed apart in the source

For `Nc1ccn([C@@H]2O[C@H](CO)[C@@H](O)C2(F)F)c(=O)n1` [gemcitabine], the disease stabilization ([1]; 15 assessable patients) is given as 47%, the “progression-free survival rate at 6 months” value ([1]; calculated, 95% CI 0, 30.5) is given as 13.3% and the “progression-free survival rate at 3 months” value ([1]; calculated, 95% CI 21.4, 71.9) is given as 46.7%. The remission rate ([1]; gemcitabine 1.0 g/m^2 days 1, 8, 15 every 4 weeks, 15 assessable patients) was 6%, the median progression-free survival ([1]; range 1-18+) was 3 months and the “duration of a partial response in a patient” value ([2]; in vivo) was 8 months. For the same molecule, the rate of remissions ([2]; previously untreated patients, 90% CI 0, 18) was 4%, the “objective responses in patients with GIST” value ([3]; 17 patients with GIST) was “no objective responses” and the “median duration of remission” value ([3]; in vivo) was 3.5 months. The remission rate ([3]; patients with soft tissue sarcomas) was 18%, the “hemolytic uremic syndrome (HUS)” value (6 of 2429 patients) was 0.25% and the edema (human, in vivo) was 13%. The flu syndrome (human, in vivo) was 19%, the generalized edema (human, in vivo) was under 1% and the “overall incidence of fever” value (human, in vivo) was 41%. For the same molecule, the peripheral edema (human, in vivo) was 20%, the principal dose-limiting toxicity (human, in vivo) was “Myelosuppression” and the rash (human, in vivo) was 30%. For the same molecule, the nausea and vomiting (usually mild to moderate severity) was 69%.
For `CC(=O)O[C@@]12CO[C@@H]1C[C@H](O)[C@@]1(C)C(=O)[C@H](O)C3=C(C)[C@@H](OC(=O)[C@H](O)[C@@H](NC(=O)OC(C)(C)C)c4ccccc4)C[C@@](O)([C@@H](OC(=O)c4ccccc4)[C@H]21)C3(C)C` [docetaxel], the “storage time of initial diluted solution” value ([4]; 10 mg docetaxel/ml, refrigerator or room temperature) is listed as at most 8 h, the “stability of infusion solution” value ([4]; stored between 2 and 25° C.) is listed as 4 h and the response rate [5] is listed as 5.9%. For the same molecule, the IC50 [6] was 200 nM, the partial responses [7] was 17% and the “major toxic effect which limits dose” value [8] was “neutropenia”. The partial responses [9] was 15%.
In the case of `CC(=O)O[C@H]1C(=O)[C@@]2(C)[C@H]([C@H](OC(=O)c3ccccc3)[C@]3(O)C[C@H](OC(=O)[C@H](O)[C@@H](NC(=O)c4ccccc4)c4ccccc4)C(C)=C1C3(C)C)[C@]1(OC(C)=O)CO[C@@H]1C[C@@H]2O` [paclitaxel], the “complete or partial response” value [10] is given as 8.4%, the stable disease [10] is given as 22.9% and the response rate [11] is given as 12.5%. The patients responding [12] was “eight of nine” and the IC50 [6] was 400 nM.
In the case of `Nc1ccn([C@@H]2O[C@H](CO)[C@@H](O)C2(F)F)c(=O)n1` [Gemcitabine HCl, 2′-deoxy-2′,2′-difluorocytidine monohydrochloride ((beta)-isomer)], the “solubility in ethanol and polar organic solvents” value [13] is listed as “practically insoluble”, the solubility in methanol [13] is listed as “slightly soluble” and the solubility in water [13] is listed as “soluble”.
